This is an account of results in patent US20260007681A1, “INDOLE DERIVATIVES AS ESTROGEN RECEPTOR DEGRADERS” (REGENTS OF THE UNIVERSITY OF MICHIGAN, priority 2022, published 2026).

For one test, the target named is ER (Homo sapiens (Human), UniProt P03372). Description: In-cell western blot analysis of relative ER percentage (Compounds B1-B278). Format: cell-based. The conditions noted are these: ER degradation, 16 hours, read-out: ICW DC50. The method in brief:
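Cells seeded at 40,000 or 10,000 cells/well and treated with compound (final 0.5% DMSO) for 16 h, then formaldehyde-fixed, Triton-permeabilized and co-stained for ER and GAPDH with 680/800 secondaries; LI-COR plate read. ER level expressed relative to untreated/DMSO-treated wells set at 100%.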

A short description of test [1]: Cell growth assay (WST-8) (Compounds B1-B278). Format: cell-based. Particulars: T47D cell line, WST-8, 4 days, read-out: Cell Growth Inhibition in T47D cell line IC50. The method in brief: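 Cells seeded at 1500/well overnight, treated one day later with compound doses for 4 days, then 10% WST-8 added for 2.5 h at 37° C in CO2. Absorbance at 450 nm, expressed relative to vehicle control over three independent repeats.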
Background: Tetrazolium assays rely on reduction of a dye to a coloured formazan, in cell work by metabolically active cells.

Read-outs that look alike come from different tables or passages of the source.

ER, sequence (P03372 whole entry): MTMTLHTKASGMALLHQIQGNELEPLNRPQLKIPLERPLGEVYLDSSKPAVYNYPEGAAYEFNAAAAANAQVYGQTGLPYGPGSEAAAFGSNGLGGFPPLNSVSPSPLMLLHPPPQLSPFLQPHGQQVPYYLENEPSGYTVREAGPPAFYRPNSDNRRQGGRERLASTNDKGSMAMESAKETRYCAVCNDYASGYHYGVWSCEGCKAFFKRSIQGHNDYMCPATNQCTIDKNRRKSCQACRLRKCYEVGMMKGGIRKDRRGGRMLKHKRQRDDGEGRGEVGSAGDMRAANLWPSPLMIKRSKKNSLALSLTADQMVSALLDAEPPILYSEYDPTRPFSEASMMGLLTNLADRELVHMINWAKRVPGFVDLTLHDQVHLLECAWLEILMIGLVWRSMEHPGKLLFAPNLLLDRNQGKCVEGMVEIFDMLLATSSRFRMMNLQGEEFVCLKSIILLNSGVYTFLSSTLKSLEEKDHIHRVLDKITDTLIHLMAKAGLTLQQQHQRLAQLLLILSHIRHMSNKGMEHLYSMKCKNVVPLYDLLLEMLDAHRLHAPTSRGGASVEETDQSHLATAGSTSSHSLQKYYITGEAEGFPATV

Usually DC50 stands for the concentration at which degradation of the target reaches its halfway point. By IC50 is commonly meant the concentration needed to halve the response being measured. Take `C[C@@H]1Cc2c([nH]c3ccccc23)[C@@H](c2cnc(N3CC4(CCC(CN5CCN6c7ccc8c(c7OC[C@H]6C5)CN(C5CCC(=O)NC5=O)C8=O)CC4)C3)nc2)N1CC(C)(C)F` (stereo partly drawn) [Compound B182, 3-((R)-7-((2-(5-((1R,3R)-2-(2-fluoro-2-methylpropyl)-3-methyl-2,3,4,9-tetrahydro-1H-pyrido[3,4-b]indol-1-yl)pyrimidin-2-yl)-2-azaspiro[3.5]nonan-7-yl)methyl)-1-oxo-1,3,5,5a,6,7,8,9-octahydro-2H-pyrazino[1′,2′:4,5][1,4]oxazino[2,3-e]isoindol-2-yl)piperidine-2,6-dione]: the DC50 at ER was < 10 nM. Besides, the IC50 in test [1] (96 h) is 1 to 10 nM.
In the same order, the values of `C[C@@H]1Cc2c([nH]c3ccccc23)[C@@H](c2cnc(N3CC4(CCC(CN5CCN6c7ccc8c(c7OC[C@H]6C5)CN(C5CCC(=O)NC5=O)C8=O)CC4)C3)nc2)N1CC(F)F` (stereo partly drawn) [Compound B183, 3-((R)-7-((2-(5-((1R,3R)-2-(2,2-difluoroethyl)-3-methyl-2,3,4,9-tetrahydro-1H-pyrido[3,4-b]indol-1-yl)pyrimidin-2-yl)-2-azaspiro[3.5]nonan-7-yl)methyl)-1-oxo-1,3,5,5a,6,7,8,9-octahydro-2H-pyrazino[1′,2′:4,5][1,4]oxazino[2,3-e]isoindol-2-yl)piperidine-2,6-dione] are < 10 nM and 1 to 10 nM.
On the same counts, the results for `C[C@@H]1Cc2c([nH]c3ccccc23)[C@@H](c2cnc(N3CCC(CN4CCN5c6ccc7c(c6OC[C@@H]5C4)CN(C4CCC(=O)NC4=O)C7=O)CC3)nc2)N1CC(C)(C)F` (stereo partly drawn) [Compound B258, 3-((S)-7-((1-(5-((1R,3R)-2-(2-fluoro-2-methylpropyl)-3-methyl-2,3,4,9-tetrahydro-1H-pyrido[3,4-b]indol-1-yl)pyrimidin-2-yl)piperidin-4-yl)methyl)-1-oxo-1,3,5,5a,6,7,8,9-octahydro-2H-pyrazino[1′,2′:4,5][1,4]oxazino[2,3-e]isoindol-2-yl)piperidine-2,6-dione] are > 100 nM and < 1 nM.
As for `C[C@@H]1Cc2c([nH]c3ccccc23)[C@@H](c2cnc(N3CC4(CCC(CN5CCN6c7ccc8c(c7OC[C@H]6C5)CN(C5CCC(=O)NC5=O)C8=O)CC4)C3)nc2)N1CC1(F)CC1` (stereo partly drawn) [Compound B260, 3-((R)-7-((2-(5-((1R,3R)-2-((1-fluorocyclopropyl)methyl)-3-methyl-2,3,4,9-tetrahydro-1H-pyrido[3,4-b]indol-1-yl)pyrimidin-2-yl)-2-azaspiro[3.5]nonan-7-yl)methyl)-1-oxo-1,3,5,5a,6,7,8,9-octahydro-2H-pyrazino[1′,2′:4,5][1,4]oxazino[2,3-e]isoindol-2-yl)piperidine-2,6-dione], the DC50 on ER is 10 to 100 nM. Also, the IC50 in test [1] (96 h) was in the range of 1 to 10 nM.
On the same counts, the results for `C[C@@H]1Cc2c([nH]c3ccccc23)[C@@H](c2cnc(N3CCC4(CC3)CC(CN3CCN5c6ccc7c(c6OC[C@H]5C3)CN(C3CCC(=O)NC3=O)C7=O)C4)nc2)N1CC1(F)CC1` (stereo partly drawn) [Compound B261, 3-((R)-7-((7-(5-((1R,3R)-2-((1-fluorocyclopropyl)methyl)-3-methyl-2,3,4,9-tetrahydro-1H-pyrido[3,4-b]indol-1-yl)pyrimidin-2-yl)-7-azaspiro[3.5]nonan-2-yl)methyl)-1-oxo-1,3,5,5a,6,7,8,9-octahydro-2H-pyrazino[1′,2′:4,5][1,4]oxazino[2,3-e]isoindol-2-yl)piperidine-2,6-dione] are 10 to 100 nM and 1 to 10 nM.
On the same counts, the results for `C[C@@H]1Cc2c([nH]c3ccccc23)[C@@H](c2cnc(N3CCC4(CC3)CC(CN3CCC5(CC3)COc3c5ccc5c3CN(C3CCC(=O)NC3=O)C5=O)C4)nc2)N1CC(F)F` (stereo partly drawn) [Compound B262, 3-(1′-((7-(5-((1R,3R)-2-(2,2-difluoroethyl)-3-methyl-2,3,4,9-tetrahydro-1H-pyrido[3,4-b]indol-1-yl)pyrimidin-2-yl)-7-azaspiro[3.5]nonan-2-yl)methyl)-6-oxo-6,8-dihydro-2H,7H-spiro[furo[2,3-e]isoindole-3,4′-piperidin]-7-yl)piperidine-2,6-dione] are 10 to 100 nM and < 1 nM.
In the same order, the values of `C[C@@H]1Cc2c([nH]c3ccccc23)[C@@H](c2cnc(N3CC4(CCC(CN5CCN6c7ccc8c(c7OC[C@@H]6C5)CN(C5CCC(=O)NC5=O)C8=O)CC4)C3)nc2)N1CC(F)F` (stereo partly drawn) [Compound B263, 3-((S)-7-((2-(5-((1R,3R)-2-(2,2-difluoroethyl)-3-methyl-2,3,4,9-tetrahydro-1H-pyrido[3,4-b]indol-1-yl)pyrimidin-2-yl)-2-azaspiro[3.5]nonan-7-yl)methyl)-1-oxo-1,3,5,5a,6,7,8,9-octahydro-2H-pyrazino[1′,2′:4,5][1,4]oxazino[2,3-e]isoindol-2-yl)piperidine-2,6-dione] are 10 to 100 nM and 1 to 10 nM.
As to `C[C@@H]1Cc2c([nH]c3ccccc23)[C@@H](c2cnc(N3CCC4(CC3)CC(CN3CCN5c6ccc7c(c6OC[C@@H]5C3)CN(C3CCC(=O)NC3=O)C7=O)C4)nc2)N1CC(F)F` (stereo partly drawn) [Compound B264, 3-((S)-7-((7-(5-((1R,3R)-2-(2,2-difluoroethyl)-3-methyl-2,3,4,9-tetrahydro-1H-pyrido[3,4-b]indol-1-yl)pyrimidin-2-yl)-7-azaspiro[3.5]nonan-2-yl)methyl)-1-oxo-1,3,5,5a,6,7,8,9-octahydro-2H-pyrazino[1′,2′:4,5][1,4]oxazino[2,3-e]isoindol-2-yl)piperidine-2,6-dione], the DC50 on ER was in the range of 10 to 100 nM. For the same compound, the IC50 in test [1] (96 h) was in the range of 1 to 10 nM.
With `C[C@@H]1Cc2c([nH]c3ccccc23)[C@@H](c2c(F)cc(N3CCC4(CC3)CC(CN3CCN5c6ccc7c(c6OC[C@H]5C3)CN(C3CCC(=O)NC3=O)C7=O)CO4)cc2F)N1CC(F)(F)CO` (stereo partly drawn) [Compound B266, 3-((5aR)-7-((8-(4-((1R,3R)-2-(2,2-difluoro-3-hydroxypropyl)-3-methyl-2,3,4,9-tetrahydro-1H-pyrido[3,4-b]indol-1-yl)-3,5-difluorophenyl)-1-oxa-8-azaspiro[4.5]decan-3-yl)methyl)-1-oxo-1,3,5,5a,6,7,8,9-octahydro-2H-pyrazino[1′,2′:4,5][1,4]oxazino[2,3-e]isoindol-2-yl)piperidine-2,6-dione], the DC50 on ER was in the range of 10 to 100 nM. The IC50 in test [1] (96 h) was in the range of 1 to 10 nM.
In the same order, the values of `C[C@@H]1CC2c3ccccc3NC2[C@@H](c2c(F)cc(N3CCC4(CC3)CC(CN3CCN5c6cc7c(cc6OC[C@H]5C3)C(=O)N(C3CCC(=O)NC3=O)C7)CO4)cc2F)N1CC(F)(F)CO` (stereo partly drawn) [Compound B267, 3-((4aR)-3-((8-(4-((1R,3R)-2-(2,2-difluoro-3-hydroxypropyl)-3-methyl-2,3,4,4a,9,9a-hexahydro-1H-pyrido[3,4-b]indol-1-yl)-3,5-difluorophenyl)-1-oxa-8-azaspiro[4.5]decan-3-yl)methyl)-8-oxo-1,2,3,4,4a,5,8,10-octahydro-9H-pyrazino[1′,2′:4,5][1,4]oxazino[2,3-f]isoindol-9-yl)piperidine-2,6-dione] are > 100 nM and > 10 nM.
For the compound `C[C@@H]1Cc2c([nH]c3ccccc23)[C@@H](c2ccc(N3CCC4(CC3)CC(CN3CCN5c6ccc7c(c6OC[C@H]5C3)CN(C3CCC(=O)NC3=O)C7=O)CO4)cn2)N1CC(F)(F)F` (stereo partly drawn) [Compound B268, (3S)-3-((5aR)-7-((8-(6-((1S,3R)-3-methyl-2-(2,2,2-trifluoroethyl)-2,3,4,9-tetrahydro-1H-pyrido[3,4-b]indol-1-yl)pyridin-3-yl)-1-oxa-8-azaspiro[4.5]dccan-3-yl)methyl)-1-oxo-1,3,5,5a,6,7,8,9-octahydro-2H-pyrazino[1′,2′:4,5][1,4]oxazino[2,3-e]isoindol-2-yl)piperidine-2,6-dione], the 50% degradation concentration (DC50) at ER was in the range of 10 to 100 nM. Besides, the IC50 in test [1] (96 h) lay in the range of 1 to 10 nM.
Consider `C[C@@H]1Cc2c([nH]c3ccccc23)[C@@H](c2ccc(N3CCC4(CC3)CC(CN3CCN5c6cc7c(cc6OC[C@@H]5C3)C(=O)N(C3CCC(=O)NC3=O)C7)CO4)cn2)N1CC(F)(F)F` (stereo partly drawn) [Compound B269, 3-((4aS)-3-((8-(6-((1S,3R)-3-methyl-2-(2,2,2-trifluoroethyl)-2,3,4,9-tetrahydro-1H-pyrido[3,4-b]indol-1-yl)pyridin-3-yl)-1-oxa-8-azaspiro[4.5]decan-3-yl)methyl)-8-oxo-1,2,3,4,4a,5,8,10-octahydro-9H-pyrazino[1′,2′:4,5][1,4]oxazino[2,3-f]isoindol-9-yl)piperidine-2,6-dione], for which the DC50 on ER was in the range of 10 to 100 nM. For the same compound, in test [1], the IC50 fell in the range of 1 to 10 nM.
On to `C[C@@H]1Cc2c([nH]c3ccccc23)[C@@H](c2c(F)cc(N3CCC4(CC3)OCC(CN3CCN5c6cc7c(cc6OC[C@@H]5C3)C(=O)N(C3CCC(=O)NC3=O)C7)CO4)cc2F)N1CC(F)(F)CO` (stereo partly drawn) [Compound B270, 3-((S)-3-((9-(4-((1R,3R)-2-(2,2-difluoro-3-hydroxypropyl)-3-methyl-2,3,4,9-tetrahydro-1H-pyrido[3,4-b]indol-1-yl)-3,5-difluorophenyl)-1,5-dioxa-9-azaspiro[5.5]undecan-3-yl)methyl)-8-oxo-1,2,3,4,4a,5,8,10-octahydro-9H-pyrazino[1′,2′:4,5][1,4]oxazino[2,3-f]isoindol-9-yl)piperidine-2,6-dione], for which the DC50 on ER lay within 10 to 100 nM. Also, in test [1] (96 h), the IC50 is < 1 nM.
